Test results: patent US20260285850A1, “SUBSTITUTED OXAZOLIDINONES AND IMIDAZOLINONES AS HERBICIDES” (FMC CORPORATION, priority 2023, published 2026)

Key:
Assay type in all cases: in vivo
[1] = tested on: galium (catchweed bedstraw, Galium aparine); assay: Test A postemergence application, visual injury rating 0-100
Outline: (§1)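 Visual injury ratings (0, no effect; 100, complete control) were assigned relative to untreated plants 10 days after treatment. Test chemicals, formulated with a surfactant-containing non-phytotoxic solvent, were applied in loam-sand soil either as a directed soil spray before emergence or to emerged plants, and plants were kept in a greenhouse.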

[2] = tested on: corn (Zea mays); assay: as above
Outline: as §1

[3] = tested on: soybean (Glycine max); assay: as above
Outline: as §1

[4] = tested on: ragweed (common ragweed, Ambrosia artemisiifolia); assay: as above
Outline: as §1

[5] = tested on: ryegrass, Italian (italian ryegrass, Lolium multiflorum); assay: as above
Outline: as §1

[6] = tested on: palmer (palmer amaranth, palmer pigweed, Amaranthus palmeri); assay: as above
Outline: as §1

[7] = tested on: barnyardgrass (Echinochloa crus-galli); assay: as above
Outline: as §1

[8] = tested on: wheat (Triticum aestivum); assay: as above
Outline: as §1

[9] = tested on: oat, wild (wild oat, Avena fatua); assay: as above
Outline: as §1

[10] = tested on: blackgrass (Alopecurus myosuroides); assay: as above
Outline: as §1

[11] = tested on: green foxtail (Setaria viridis); assay: as above
Outline: as §1

[12] = tested on: horseweed (Erigeron canadensis); assay: as above
Outline: as §1

[13] = tested on: kochia (Bassia scoparia); assay: as above
Outline: as §1

[14] = tested on: sedge, umbrella (small-flower umbrella sedge, Cyperus difformis); assay: Test B flooded paddy test, visual plant response rating 0-100; conditions: 250 g ai/ha, Flood, applied to paddy water, evaluated after 13 days
Outline: (§2)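 Plants were grown to the 2-leaf stage, then pots were flooded to 3 cm above the soil and compound was applied directly to the paddy water, with that depth kept throughout.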

[15] = tested on: ducksalad (Heteranthera limosa); assay: as above; conditions: 250 g ai/ha, Flood, applied to paddy water, evaluated after 13 days
Outline: as §2

[16] = tested on: rice (Oryza sativa); assay: as above; conditions: 250 g ai/ha, Flood, applied to paddy water, evaluated after 13 days
Outline: as §2

[17] = tested on: barnyardgrass (Echinochloa crusgalli); assay: as above; conditions: 250 g ai/ha, Flood, applied to paddy water, evaluated after 13 days
Outline: as §2

[18] = tested on: corn (Zea mays); assay: Test A preemergence soil spray, visual injury rating 0-100; conditions: 10 days
Outline: as §1

[19] = tested on: soybean (Glycine max); assay: as above; conditions: 10 days
Outline: as §1

[20] = tested on: ragweed (common ragweed, Ambrosia artemisiifolia); assay: as above; conditions: 10 days
Outline: as §1

[21] = tested on: ryegrass, Italian (italian ryegrass, Lolium multiflorum); assay: as above; conditions: 10 days
Outline: as §1

[22] = tested on: palmer (palmer amaranth, palmer pigweed, Amaranthus palmeri); assay: as above; conditions: 10 days
Outline: as §1

[23] = tested on: barnyardgrass (Echinochloa crus-galli); assay: as above; conditions: 10 days
Outline: as §1

[24] = tested on: wheat (Triticum aestivum); assay: as above; conditions: 10 days
Outline: as §1

[25] = tested on: oat, wild (wild oat, Avena fatua); assay: as above; conditions: 10 days
Outline: as §1

[26] = tested on: blackgrass (Alopecurus myosuroides); assay: as above; conditions: 10 days
Outline: as §1

[27] = tested on: green foxtail (Setaria viridis); assay: as above; conditions: 10 days
Outline: as §1

[28] = tested on: kochia (Bassia scoparia); assay: as above; conditions: 10 days
Outline: as §1

[29] = 62 g ai/ha, postemergence, 10 days, 0 = no effect, 100 = complete control
[30] = Postemergence, 16 g ai/ha, greenhouse 10 days, 0 no effect, 100 complete control
[31] = 62 g ai/ha, 0 = no effect, 100 = complete control

`COC(=O)C1CC(NC(=O)C2(C)CN(c3cc(F)cc(F)c3)C(=O)O2)C1` (stereo not shown) [Compound 130] was tested, and the “Galium plant response rating (0-100)” value [1, 29] was 90, the “Galium plant response rating (0 to 100 scale)” value [1, 30] was 70 and the “Corn plant response rating (0-100)” value [2, 29] was 100. For the same molecule, the “Corn plant response rating (0 to 100 scale)” value [2, 30] was 100, the “Soybean plant response rating (0-100)” value [3, 29] was 70 and the “Soybean plant response rating (0 to 100 scale)” value [3, 30] was 60. The “Ragweed plant response rating (0-100)” value [4, 29] was 30, the “Ragweed plant response rating (0 to 100 scale)” value [4, 30] was 20 and the “Ryegrass, Italian plant response rating (0-100)” value [5, 29] was 90. For the same molecule, the “Ryegrass, Italian plant response rating (0 to 100 scale)” value [5, 30] was 70, the “Pigweed, Palmer plant response rating (0-100)” value [6, 29] was 90 and the “Pigweed, Palmer plant response rating (0 to 100 scale)” value [6, 30] was 80. For the same molecule, the “Barnyardgrass plant response rating (0-100)” value [7, 29] was 80, the “Barnyardgrass plant response rating (0 to 100 scale)” value [7, 30] was 70 and the “Wheat plant response rating (0-100)” value [8, 29] was 90. For the same molecule, the “Wheat plant response rating (0 to 100 scale)” value [8, 30] was 90, the “Oat, Wild plant response rating (0-100)” value [9, 29] was 90 and the “Oat, Wild plant response rating (0 to 100 scale)” value [9, 30] was 90. For the same molecule, the “Blackgrass plant response rating (0-100)” value [10, 29] was 90, the “Blackgrass plant response rating (0 to 100 scale)” value [10, 30] was 90 and the “Foxtail, Green plant response rating (0-100)” value [11, 29] was 90. For the same molecule, the “Foxtail, Green plant response rating (0 to 100 scale)” value [11, 30] was 90, the “Horseweed plant response rating (0-100)” value [12, 29] was 30 and the “Horseweed plant response rating (0 to 100 scale)” value [12, 30] was 10. For the same molecule, the “Kochia plant response rating (0-100)” value [13, 29] was 90, the “Kochia plant response rating (0 to 100 scale)” value [13, 30] was 80 and the “Plant response rating, Sedge, Umbrella (0 to 100 scale, 0 is no effect and 100 is complete control)” value [14] was 90. The “Plant response rating, Ducksalad (0 to 100 scale, 0 is no effect and 100 is complete control)” value [15] was 100, the “Plant response rating, Rice (0 to 100 scale, 0 is no effect and 100 is complete control)” value [16] was 60 and the “Plant response rating, Barnyardgrass (0 to 100 scale, 0 is no effect and 100 is complete control)” value [17] was 80. The “Corn plant response rating” value ([18]; 16 g ai/ha, 0 to 100 scale) was 10, the “Corn plant response rating (0-100)” value [18, 31] was 90 and the “Soybean plant response rating” value ([19]; 16 g ai/ha, 0 to 100 scale) was 0. The “Soybean plant response rating (0-100)” value [19, 31] was 40, the “Ragweed plant response rating” value ([20]; 16 g ai/ha, 0 to 100 scale) was 0 and the “Ragweed plant response rating (0-100)” value [20, 31] was 0. The “Ryegrass, Italian plant response rating” value ([21]; 16 g ai/ha, 0 to 100 scale) was 40, the “Ryegrass, Italian plant response rating (0-100)” value [21, 31] was 90 and the “Pigweed, Palmer plant response rating” value ([22]; 16 g ai/ha, 0 to 100 scale) was 10. The “Pigweed, Palmer plant response rating (0-100)” value [22, 31] was 30, the “Barnyardgrass plant response rating” value ([23]; 16 g ai/ha, 0 to 100 scale) was 0 and the “Barnyardgrass plant response rating (0-100)” value [23, 31] was 70. The “Wheat plant response rating” value ([24]; 16 g ai/ha, 0 to 100 scale) was 90, the “Wheat plant response rating (0-100)” value [24, 31] was 90 and the “Oat, Wild plant response rating” value ([25]; 16 g ai/ha, 0 to 100 scale) was 50. The “Oat, Wild plant response rating (0-100)” value [25, 31] was 90, the “Blackgrass plant response rating” value ([26]; 16 g ai/ha, 0 to 100 scale) was 70 and the “Blackgrass plant response rating (0-100)” value [26, 31] was 90. For the same molecule, the “Foxtail, Green plant response rating” value ([27]; 16 g ai/ha, 0 to 100 scale) was 50, the “Foxtail, Green plant response rating (0-100)” value [27, 31] was 90 and the “Kochia plant response rating” value ([28]; 16 g ai/ha, 0 to 100 scale) was 0. For the same molecule, the “Kochia plant response rating (0-100)” value [28, 31] was 90.
